Measurements reported in patent US20200046746A1, “ANTI-AGING COMPOSITIONS AND METHODS FOR USING SAME” (Prescient Pharma LLC, priority 2015, published 2020).
Where “and” joins values, the source holds several entries; their conditions need not be identical. Equal entries are not always repeated.

What was measured:
[1] = system: normal human colon fibroblast cell line CCD 841 CoN (CRL-1790, ATCC); test: Senescence beta-galactosidase staining of aged normal human fibroblasts (Example 1); format: cell-based; conditions: lithium carbonate 0.15 μM and/or glycyrrhizic acid 0.25 mM; for effect on beta-galactosidase staining of the fibroblasts in comparison with non-treated controls or monotherapy / % green stained (average green area with and without background subtraction) / % green staining (green stained area of total original area) / visible positive beta-Galactosidase staining: 48 hours; for % green staining: per flask, 48 hours treatment, higher values = more aged cells; for % green stained (average green area with and without background subtraction) / % green staining (green stained area of total original area): per image, substance assigned through Table 3 (Area = Image #); for visible positive beta-Galactosidase staining: visual, light microscope 100× magnification
Experimental: Aging-associated beta-galactosidase is widely used as a biomarker of senescence. Here we investigated senescence-associated-beta-galactosidase activity of human colon fibroblast cells by visual assessment.
In this Example, the effect of treatment with lithium and glycyrrhizic acid separately, and as a fixed combination, was evaluated on normal human colon fibroblast cell line CCD 841 CoN (CRL-1790, ATCC).
Group 4 (flasks 10-12, control), the medium was changed to fresh compete EMEM medium without drugs as controls.
FIGS. 1-4 show pictures of the staining results for each of the groups, respectively.
Digital pictures showing the staining results for each of the 12 flasks were then independently examined and scored for percentage of area of green (positive) staining based on pixels, with and without background subtraction.
Higher values reflect more intensive green staining which corresponds to more aged cells.

[2] = system: wild-type N2 Bristol strain of C. elegans; test: C. elegans longevity study (Example 4); format: in vivo; conditions: for longevity and survival (longevity effect): wild type C. elegans, lithium carbonate 0.15 or 15 μM
Experimental: In this fourth Example, the effect of treatment with lithium and Glycyrrhizic acid separately, and as a fixed combination, was further evaluated on the wild-type N2 Bristol strain of C. elegans. Worm stocks were maintained on nematode growth medium (NGM) dishes containing 10 μg/mL cholesterol (Cat. No. C8667; Sigma-Aldrich, Saint Louis, Mo., USA). Dishes were seeded with OP50 Escherichia coli as a food source. Twelve polystyrene petri dishes (35 mm diameter) were prepared by filling with NGM agar containing […] cholesterol, and 25 μM 5-Fluoro-2′-deoxyuridine to suppress reproduction (FUDR; Cat. No. F0503; Sigma-Aldrich, Saint Louis, Mo., USA). The dishes were seeded with OP50 Escherichia coli as a food source. Duplicate dishes were used for each group. The treatment drug was dissolved in deionized water, and added to the dishes for the groups as explained below: […] Group #5: Glycyrrhizic acid in concentration of 0.25 mM. Group #6: untreated (control). NGM-agar treatment plates containing cholesterol (10 μg/mL) and 25 μM 5-Fluoro-2′-deoxyuridine (FUDR; Cat. No. F0503; Sigma-Aldrich, Saint Louis, Mo., USA) to suppress reproduction. […] The survival data for the various groups are also depicted in FIG. 17.

[3] = lithium carbonate 0.15 μM, in the combination plus glycyrrhizic acid 0.25 mM
[4] = lithium carbonate 15 μM, in the combination plus glycyrrhizic acid 0.25 mM

Structure (SMILES): CC1(C)[C@@H](O[C@@H]2O[C@@H](C(=O)O)[C@H](O)[C@@H](O)[C@@H]2O[C@H]2O[C@@H](C(=O)O)[C@H](O)[C@@H](O)[C@@H]2O)CC[C@]2(C)[C@@H]1CC[C@@]1(C)[C@H]2C(=O)C=C2[C@H]3C[C@@](C)(C(=O)O)CC[C@@]3(C)CC[C@@]21C [G acid, (3β,20β)-20-carboxy-11-oxo-30-norolean-12-en-3-yl 2-O-β-D-glucopyranuronosyl-α-D-glucopyranosiduronic acid]
- effect on beta-galactosidase staining of the fibroblasts in comparison with non-treated controls or monotherapy [1]: did not appear to have significant effect
- % green staining [1]: 9.1% and 10.03% and 6.91%
- % green stained (average green area with and without background subtraction) [1]: 6.908% and 9.104% and 10.03%
- % green staining (green stained area of total original area) [1]: 6.91% and 9.1% and 10.03%
- visible positive beta-Galactosidase staining [1]: stained positively
- Age in days at % mortality 25% ([2]; glycyrrhizic acid 0.25 mM): 14 days
- Age in days at % mortality 50% ([2]; glycyrrhizic acid 0.25 mM): 16 days
- Age in days at % mortality 75% ([2]; glycyrrhizic acid 0.25 mM): 18 days
- Age in days at % mortality 90% ([2]; glycyrrhizic acid 0.25 mM): 19 days
- Age in days at % mortality 100% ([2]; glycyrrhizic acid 0.25 mM): 20 days
- Restricted mean Days ([2]; glycyrrhizic acid 0.25 mM): 16.06 days
- longevity and survival (longevity effect) ([2]; glycyrrhizic acid 0.25 mM): not observed

Structure (SMILES): O=C([O-])[O-].[Li+].[Li+] [Li, lithium carbonate]
- effect on beta-galactosidase staining of the fibroblasts in comparison with non-treated controls or monotherapy [1]: did not appear to have significant effect
- % green staining [1]: 6.25% and 2.83% and 5.24%
- % green stained (average green area with and without background subtraction) [1]: 2.828% and 6.253% and 5.243%
- % green staining (green stained area of total original area) [1]: 2.83% and 6.25% and 5.24%
- visible positive beta-Galactosidase staining [1]: stained positively
- Age in days at % mortality 100% ([2]; lithium carbonate 0.15 μM): 19 days
- Age in days at % mortality 25% [2, 3]: 13 days
- Age in days at % mortality 50% [2, 3]: 15 days
- Age in days at % mortality 75% [2, 3]: 16 days
- Age in days at % mortality 90% [2, 3]: 18 days
- Restricted mean Days [2, 3]: 14.88 days
- Age in days at % mortality 100% ([2]; lithium carbonate 15 μM): 19 days
- Age in days at % mortality 25% [2, 4]: 14 days
- Age in days at % mortality 50% [2, 4]: 15 days
- Age in days at % mortality 75% [2, 4]: 16 days
- Age in days at % mortality 90% [2, 4]: 18 days
- Restricted mean Days [2, 4]: 14.56 days
- longevity and survival (longevity effect) ([2]; glycyrrhizic acid 0.25 mM): not observed
